Measured values as given in patent US20210108197A1, “SHRNA EXPRESSION CASSETTE, POLY[…] CARRYING SAME, AND APPLICATION THEREOF” (priority 2017, published 2021).

How the values were obtained:
[1] = tested on: HBV; assay: In vivo pharmacodynamic experiment, HBsAg in serum; parameters: species or system HBV transgenic BALB/c; conditions: intravenous injection, LAM 150 mg/kg, ETV 3.2 mg/kg, intron2 3 × 10^10, intron5 1.5 × 10^11 vg/animal, relative, D 0 = 1
Method: (§1) Two drugs having two structures scAAV2/8-H1-shRNA2-intron2 and scAAV2/8-H1-shRNA2-intron5 were compared with the commercial drugs lamivudine and entecavir for evaluating in vivo efficacy. The administration mode was intravenous injection, and 14 days was a blood collection period. After separating serum samples, HBsAg and HBV DNA were detected. The grouping of animal experiments is shown as follows:
(§2) The experiment was conducted for total of […] (38 weeks). For the experimental method, see Example 2 “4. Expression and detection of target gene” The detection results are shown in FIG. 40 and Table 2-12 (BsAg detection), and FIG. 41 and Table 2-13 (BV DNA detection).

[2] = tested on: HBV; assay: In vivo pharmacodynamic experiment, HBV DNA in serum; parameters: species or system HBV transgenic BALB/c; conditions: intravenous injection, LAM 150 mg/kg, ETV 3.2 mg/kg, intron2 3 × 10^10, intron5 1.5 × 10^11 vg/animal, relative, D 0 = 1
Method: as §1, §2

Row | SMILES | HBsAg detection in serum, D 0 [1] | HBsAg detection in serum, D 14 [1] | HBsAg detection in serum, D 28 [1] | HBsAg detection in serum, D 35 [1] | HBsAg detection in serum, D 49 [1] | HBsAg detection in serum, D 70 [1] | HBsAg detection in serum, D 98 [1] | HBsAg detection in serum, D 126 [1] | HBsAg detection in serum, D 154 [1] | HBsAg detection in serum, D 182 [1] | HBsAg detection in serum, D 210 [1] | HBsAg detection in serum, D 238 [1] | HBsAg detection in serum, D 266 [1] | HBV DNA detection in serum, D 0 [2] | HBV DNA detection in serum, D 14 [2] | HBV DNA detection in serum, D 28 [2] | HBV DNA detection in serum, D 35 [2] | HBV DNA detection in serum, D 49 [2] | HBV DNA detection in serum, D 70 [2] | HBV DNA detection in serum, D 98 [2] | further results
1 | C=C1[C@H](CO)[C@@H](O)C[C@@H]1n1cnc2c(=O)[nH]c(N)nc21 [ETV, Entecavir] | 1 | 1.51 | 1.55 | 1.8 | 1.4 | 1.33 | 1.34 | 1.48 | 0.75 | 0.81 | 1.57 | 0.83 | 0.94 | 1 | 8.68 | 1.24 | 1.08 | 1.25 | 3.93 | 1.05 | HBV DNA detection in serum, D 126 [2]: 0.72; HBV DNA detection in serum, D 154 [2]: 1.06; HBV DNA detection in serum, D 182 [2]: 3.33; HBV DNA detection in serum, D 210 [2]: 5.5; HBV DNA detection in serum, D 238 [2]: 2.96; HBV DNA detection in serum, D 266 [2]: 1.55
2 | Nc1ccn([C@@H]2CS[C@H](CO)O2)c(=O)n1 [LAM, Lamivudine] | 1 | 0.98 | 0.96 | 1.23 | 1.21 | 1.01 | 1.19 | 1.46 | 0.66 | 0.76 | 1.16 | 0.5 | 0.54 | 1 | 0.69 | 0.87 | 0.72 | 0.68 | 1.26 | 0.41 | HBV DNA detection in serum, D 126 [2]: 0.24; HBV DNA detection in serum, D 154 [2]: 0.56; HBV DNA detection in serum, D 182 [2]: 0.8; HBV DNA detection in serum, D 210 [2]: 0.28; HBV DNA detection in serum, D 238 [2]: 0.26; HBV DNA detection in serum, D 266 [2]: 0.07
